PubChem BioAssay AID743339 (Broad Institute, 2014)
Blank lines part the entries; values can stand above or below the molecule they belong to. Calls of active or inactive are those of the source.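 Rule for the calls: active = activation curve crossing 200% at or below the highest valid dose tested for that sample; inconclusive = flat curve with activation between 30 and 70%, or poor fit; inactive = the rest, including signal falling instead of rising.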

Biological target: Leucyl-cystinyl aminopeptidase (Mus musculus) (UniProt Q8C129)
Assay: activation of mouse IRAP aminopeptidase activity – biochemical, Leu-AMC fluorescence, cherry-picked samples, selectivity assay for ERAP1 modulator project, dose response (AID 743339)
Details: purified IRAP, Leu-AMC cleavage fluorescence, 1 h

Leucyl-cystinyl aminopeptidase (Mus musculus), sequence (Q8C129 whole entry, looked up): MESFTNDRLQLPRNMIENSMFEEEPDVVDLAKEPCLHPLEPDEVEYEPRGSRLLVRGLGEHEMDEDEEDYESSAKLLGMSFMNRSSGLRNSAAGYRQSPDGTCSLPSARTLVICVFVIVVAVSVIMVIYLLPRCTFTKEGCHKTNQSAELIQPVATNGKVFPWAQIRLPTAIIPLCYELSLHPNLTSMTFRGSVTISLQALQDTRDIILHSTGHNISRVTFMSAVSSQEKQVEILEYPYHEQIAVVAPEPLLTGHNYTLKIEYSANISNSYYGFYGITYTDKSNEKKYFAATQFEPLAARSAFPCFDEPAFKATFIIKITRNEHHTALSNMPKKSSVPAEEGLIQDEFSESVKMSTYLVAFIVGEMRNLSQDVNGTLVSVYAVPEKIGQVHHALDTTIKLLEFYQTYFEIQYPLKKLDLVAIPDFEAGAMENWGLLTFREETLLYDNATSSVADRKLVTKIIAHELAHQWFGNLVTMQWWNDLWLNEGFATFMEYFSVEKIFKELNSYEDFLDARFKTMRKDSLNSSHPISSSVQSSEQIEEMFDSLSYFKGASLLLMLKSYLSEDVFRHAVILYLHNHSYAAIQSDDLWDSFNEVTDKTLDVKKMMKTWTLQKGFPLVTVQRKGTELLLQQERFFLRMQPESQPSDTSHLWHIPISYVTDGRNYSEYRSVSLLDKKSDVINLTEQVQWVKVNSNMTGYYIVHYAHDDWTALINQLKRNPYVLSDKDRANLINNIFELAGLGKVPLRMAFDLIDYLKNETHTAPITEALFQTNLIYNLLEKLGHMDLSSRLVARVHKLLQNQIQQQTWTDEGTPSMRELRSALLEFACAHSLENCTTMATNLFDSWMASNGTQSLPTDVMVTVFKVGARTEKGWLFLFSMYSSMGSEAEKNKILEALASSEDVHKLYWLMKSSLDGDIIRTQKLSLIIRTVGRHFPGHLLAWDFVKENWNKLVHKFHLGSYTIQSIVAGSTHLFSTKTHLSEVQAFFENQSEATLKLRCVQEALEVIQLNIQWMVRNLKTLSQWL

AC200: 964 nM
SMILES: CCN(CC)c1ccc2c(C)c(Cl)c(=O)oc2c1

AC200: 398 nM
SMILES: COc1ccc(-c2cc3ccc(O)cc3oc2=O)cc1

AC200: 675 nM
SMILES: CCNC(=O)[C@H]1[C@H](CO)[C@H]2Cn3c(ccc(/C=C/c4ccccc4)c3=O)[C@@H]1N2C(=O)C1CCCC1

AC200: 2310 nM
SMILES: CCN1[C@@H]2c3ccc(/C=C/c4ccccc4)c(=O)n3C[C@H]1[C@H](CO)[C@H]2C(=O)N1CCOCC1

AC200: 507 nM
SMILES: CC(=O)Oc1cc2oc(=O)cc(C)c2cc1Cl

activation (at 11 µM (top of the series)): -6.67% (inactive)
SMILES: CCCN(C)C[C@@H]1OCCCC[C@@H](C)Oc2ccc(NS(=O)(=O)c3ccccc3)cc2C(=O)N([C@H](C)CO)C[C@@H]1C

activation (at 11 µM (top of the series)): -6.87% (inactive)
SMILES: C[C@@H]1CCCCO[C@@H](CN(C)Cc2ccccc2)[C@H](C)CN([C@H](C)CO)C(=O)c2cc(NS(=O)(=O)c3cccs3)ccc2O1

AC200: > 2600 nM (inactive)
SMILES: Cc1c(O)ccc2c(CN3CCN(Cc4ccccc4)CC3)cc(=O)oc12

activation (at 11 µM (top of the series)): -13.9% (inactive)
SMILES: C[C@@H]1CCCCO[C@@H](CN(C)CC2CCCCC2)[C@H](C)CN([C@@H](C)CO)C(=O)c2cc(NC(=O)Nc3ccccc3)ccc2O1

activation (at 2.6 µM (top of the series)): 11.6% (inactive)
SMILES: C[C@@H]1CCCCO[C@@H](CN(C)C(=O)CCC(F)(F)F)[C@@H](C)CN([C@@H](C)CO)C(=O)c2cc(NS(=O)(=O)c3ccccc3)ccc2O1

activation (at 5.6 µM (top of the series)): 152% (inactive)
SMILES: Cc1ccc(-c2cc(C(=O)N3CCCC3)c3ccccc3n2)s1

Continued, molecule first:

SMILES: CCCN(C)C[C@@H]1OCCCC[C@@H](C)Oc2ccc(NS(=O)(=O)c3ccc(C)cc3)cc2C(=O)N([C@@H](C)CO)C[C@@H]1C
activation (at 5 µM (top of the series)): 0.889% (inactive)

SMILES: C[C@@H]1CCCCO[C@@H](CN(C)Cc2ccc(C(=O)O)cc2)[C@H](C)CN([C@@H](C)CO)C(=O)c2cc(NS(=O)(=O)c3ccc(Cl)cc3)ccc2O1
activation (at 11 µM (top of the series)): -3.97% (inactive)

SMILES: COc1ccc(CN(C)C[C@H]2OCCCC[C@@H](C)Oc3ccc(NS(=O)(=O)c4cccs4)cc3C(=O)N([C@H](C)CO)C[C@H]2C)cc1
activation (at 11 µM (top of the series)): 10% (inactive)

SMILES: CCCN(C)C[C@@H]1OCCCC[C@@H](C)Oc2ccc(NS(=O)(=O)c3ccc(F)cc3)cc2C(=O)N([C@H](C)CO)C[C@@H]1C
activation (at 11 µM (top of the series)): -17.1% (inactive)

SMILES: C[C@@H]1CCCCO[C@@H](CN(C)C(=O)CCC(F)(F)F)[C@@H](C)CN([C@@H](C)CO)C(=O)c2cc(NS(=O)(=O)c3ccc(Cl)cc3)ccc2O1
activation (at 5 µM (top of the series)): 22.3% (inactive)

SMILES: C[C@@H]1CCCCO[C@@H](CN(C)Cc2ccc3c(c2)OCO3)[C@@H](C)CN([C@H](C)CO)C(=O)c2cc(NS(=O)(=O)c3cccs3)ccc2O1
activation (at 11 µM (top of the series)): -8.52% (inactive)

SMILES: COc1ccc(CN(C)C[C@@H]2OCCCC[C@@H](C)Oc3ccc(NS(=O)(=O)c4cccs4)cc3C(=O)N([C@@H](C)CO)C[C@H]2C)cc1
activation (at 11 µM (top of the series)): -1.66% (inactive)

SMILES: C[C@@H]1CCCCO[C@@H](CN(C)C)[C@H](C)CN([C@@H](C)CO)C(=O)c2cc(NC(=O)Nc3ccc(C(F)(F)F)cc3)ccc2O1
activation (at 10 µM (top of the series)): -1.06% (inactive)

SMILES: COc1ccc(CN(C)C[C@@H]2OCCCC[C@H](C)Oc3ccc(NS(=O)(=O)c4cccs4)cc3C(=O)N([C@H](C)CO)C[C@@H]2C)cc1
activation (at 11 µM (top of the series)): -13.3% (inactive)

SMILES: O=C(Nc1ccc(C(F)(F)F)cc1)N1[C@@H]2CNC[C@H]1C2c1ccc(-c2ccncc2)cc1 (stereo partly specified)
activation (at 11 µM (top of the series)): 4.27% (inactive)
